In ChEMBL document CHEMBL3870312, “Rational modification of donepezil as multifunctional acetylcholinesterase inhibitors for the treatment of Alzheimer's disease” (Eur J Med Chem, 2016):
The source made the active and inactive calls. The calls are words filed in the database; no cut-off is given here.

How the values were obtained:
Cholinesterase [1] = biological target: Cholinesterase (Homo sapiens, UniProt P06276)
Description: Inhibition of human serum BuChE using s-butyrylthiocholine iodide as substrate preincubated for 5 mins followed by substrate addition measured up to 3 mins by Ellman's method

Acetylcholinesterase [2] = biological target: T1, Acetylcholinesterase (Homo sapiens, UniProt P22303)
T1 sequence (P22303 whole entry): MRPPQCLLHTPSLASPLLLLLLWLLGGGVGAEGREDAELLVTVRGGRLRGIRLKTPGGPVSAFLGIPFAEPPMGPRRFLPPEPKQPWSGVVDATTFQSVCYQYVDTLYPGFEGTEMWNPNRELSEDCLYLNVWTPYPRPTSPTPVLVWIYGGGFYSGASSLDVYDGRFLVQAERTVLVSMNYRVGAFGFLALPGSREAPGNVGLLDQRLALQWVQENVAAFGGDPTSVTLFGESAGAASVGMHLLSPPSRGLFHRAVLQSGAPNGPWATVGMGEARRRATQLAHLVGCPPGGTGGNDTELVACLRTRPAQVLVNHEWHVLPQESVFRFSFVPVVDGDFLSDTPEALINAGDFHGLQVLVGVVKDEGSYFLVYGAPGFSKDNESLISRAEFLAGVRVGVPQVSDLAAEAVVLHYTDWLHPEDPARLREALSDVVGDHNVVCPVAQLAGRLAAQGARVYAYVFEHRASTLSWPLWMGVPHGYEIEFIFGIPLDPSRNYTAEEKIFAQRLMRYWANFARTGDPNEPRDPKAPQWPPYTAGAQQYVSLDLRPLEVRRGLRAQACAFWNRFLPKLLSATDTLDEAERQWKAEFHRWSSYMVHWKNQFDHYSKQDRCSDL
Description: Inhibition of human erythrocytes AChE using acetylthiocholine iodide as substrate preincubated for 5 mins followed by substrate addition measured up to 3 mins by Ellman's method

Cholinesterase [3] = biological target: Cholinesterase (Equus caballus, UniProt P81908)
Chain of Cholinesterase (Equus caballus, UniProt P81908) (P81908 whole entry): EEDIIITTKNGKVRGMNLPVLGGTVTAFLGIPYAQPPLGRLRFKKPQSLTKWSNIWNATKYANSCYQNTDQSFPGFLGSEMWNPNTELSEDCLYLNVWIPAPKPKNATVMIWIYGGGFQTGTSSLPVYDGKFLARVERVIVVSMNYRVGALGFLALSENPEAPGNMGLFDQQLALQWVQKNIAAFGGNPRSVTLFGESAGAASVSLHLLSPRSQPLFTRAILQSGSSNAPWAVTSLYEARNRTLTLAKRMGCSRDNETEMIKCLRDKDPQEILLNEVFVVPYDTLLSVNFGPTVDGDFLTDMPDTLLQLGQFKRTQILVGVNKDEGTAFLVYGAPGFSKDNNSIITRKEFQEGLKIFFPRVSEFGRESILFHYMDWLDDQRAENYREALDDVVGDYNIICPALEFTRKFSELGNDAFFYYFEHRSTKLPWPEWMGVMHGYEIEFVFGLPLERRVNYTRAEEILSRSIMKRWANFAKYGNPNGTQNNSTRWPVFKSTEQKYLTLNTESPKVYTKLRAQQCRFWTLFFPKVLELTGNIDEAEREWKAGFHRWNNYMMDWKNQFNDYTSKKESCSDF
Description: Inhibition of equine serum BuChE using s-butyrylthiocholine iodide as substrate preincubated for 5 mins followed by substrate addition measured up to 3 mins by Ellman's method

Acetylcholinesterase [4] = biological target: Acetylcholinesterase (Electrophorus electricus, UniProt O42275)
Chain of Acetylcholinesterase (Electrophorus electricus, UniProt O42275) (O42275 whole entry, the tested form may be a part): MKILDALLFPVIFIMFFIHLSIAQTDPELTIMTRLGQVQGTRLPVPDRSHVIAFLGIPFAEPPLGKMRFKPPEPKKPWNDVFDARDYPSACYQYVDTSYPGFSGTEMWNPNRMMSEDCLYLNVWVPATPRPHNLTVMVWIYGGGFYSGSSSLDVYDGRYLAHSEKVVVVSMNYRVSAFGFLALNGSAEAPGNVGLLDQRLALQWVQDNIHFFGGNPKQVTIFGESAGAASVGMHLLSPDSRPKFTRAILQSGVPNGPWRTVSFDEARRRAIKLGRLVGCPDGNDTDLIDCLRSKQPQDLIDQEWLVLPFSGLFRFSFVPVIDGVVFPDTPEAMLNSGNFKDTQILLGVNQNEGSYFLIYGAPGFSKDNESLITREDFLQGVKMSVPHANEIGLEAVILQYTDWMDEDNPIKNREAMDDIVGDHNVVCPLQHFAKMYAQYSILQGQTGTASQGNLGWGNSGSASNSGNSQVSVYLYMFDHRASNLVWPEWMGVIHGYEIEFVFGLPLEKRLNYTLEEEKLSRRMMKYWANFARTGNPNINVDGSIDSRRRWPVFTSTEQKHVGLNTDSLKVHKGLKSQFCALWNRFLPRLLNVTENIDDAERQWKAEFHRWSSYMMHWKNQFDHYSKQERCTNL
Description: Inhibition of electric eel AChE using acetylthiocholine iodide as substrate preincubated for 5 mins followed by substrate addition measured up to 3 mins by Ellman's method

[5] = Inhibition of copper-mediated aggregation of amyloid beta (1 to 42 residues) (unknown origin) at 20 uM incubated for 46 to 48 hrs by thioflavin-T binding assay relative to control; type: physicochemical
in vitro = conditions: PAMPA
Description: Effective permeability of the compound after 18 hrs by PAMPA

[6] = biological target: Amyloid-beta precursor protein (Homo sapiens) (UniProt P05067); conditions: at 20 µM
Chain of Amyloid-beta precursor protein (Homo sapiens) (P05067 whole entry): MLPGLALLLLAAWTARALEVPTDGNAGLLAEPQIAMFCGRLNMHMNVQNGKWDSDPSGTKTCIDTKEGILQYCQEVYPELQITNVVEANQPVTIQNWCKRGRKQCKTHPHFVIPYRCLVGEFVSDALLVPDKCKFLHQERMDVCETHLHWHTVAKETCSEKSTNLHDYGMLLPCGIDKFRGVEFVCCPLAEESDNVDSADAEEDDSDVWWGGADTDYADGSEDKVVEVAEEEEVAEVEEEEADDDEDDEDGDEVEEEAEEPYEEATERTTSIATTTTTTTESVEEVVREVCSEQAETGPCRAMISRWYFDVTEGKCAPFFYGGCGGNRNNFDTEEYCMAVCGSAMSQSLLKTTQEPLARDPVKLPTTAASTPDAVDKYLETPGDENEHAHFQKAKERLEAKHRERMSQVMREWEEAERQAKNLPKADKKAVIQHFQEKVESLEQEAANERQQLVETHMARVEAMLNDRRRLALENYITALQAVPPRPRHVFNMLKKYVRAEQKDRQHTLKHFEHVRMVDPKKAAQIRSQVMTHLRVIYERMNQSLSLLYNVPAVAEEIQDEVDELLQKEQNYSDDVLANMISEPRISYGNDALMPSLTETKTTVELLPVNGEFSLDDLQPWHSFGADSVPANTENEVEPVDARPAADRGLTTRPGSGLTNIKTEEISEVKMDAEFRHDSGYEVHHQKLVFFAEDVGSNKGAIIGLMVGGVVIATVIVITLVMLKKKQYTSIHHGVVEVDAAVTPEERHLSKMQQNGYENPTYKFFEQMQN
Description: Inhibition of self-mediated aggregation of amyloid beta (1 to 42 residues) (unknown origin) at 20 uM incubated for 46 to 48 hrs by Thioflavin T binding assay relative to control

Rattus norvegicus = species: Rattus norvegicus; assay: Cytotoxicity against rat PC12 cells assessed as reduction in cell viability at 3.125 to 50 uM after 24 hrs by MTT assay; type: toxicity; conditions: pc-12, 24 h
Mus musculus [7] = assay: Toxicity in scopolamine-induced memory deficit Kunming mouse model assessed as change in body weight at 2.5 to 10 mg/Kg, po for 7 days; type: organism-based; conditions: in vivo, 168 h
Mus musculus [8] = assay: Toxicity in scopolamine-induced memory deficit Kunming mouse model assessed as effect on survival at 2.5 to 10 mg/Kg, po for 7 days; type: organism-based; conditions: in vivo, 168 h
Mus musculus [9] = assay: Hepatotoxicity in scopolamine-induced memory deficit Kunming mouse model assessed as increase in alanine aminotransferase levels at 10 mg/kg, po for 6 days; type: toxicity, organism-based; conditions: in vivo, 144 h
Mus musculus [10] = assay: Hepatotoxicity in scopolamine-induced memory deficit Kunming mouse model assessed as area of necrosis in hepatocytes at 10 mg/Kg, po for 6 days by hematoxylin and eosin-staining based microscopic analysis; type: toxicity, organism-based, Hepatocyte; conditions: 144 h
Mus musculus [11] = assay: Cognitive enhancement activity in po dosed scopolamine-induced memory deficit Kunming mouse model assessed as increase in step-through latency time treated for 1 hr before training followed by scopolamine challenge 30 mins before training measured 24 hrs after training trial by passive avoidance test; type: functional, organism-based
Mus musculus [12] = assay: Hepatotoxicity in scopolamine-induced memory deficit Kunming mouse model assessed as distinct fatty degeneration in hepatocytes at 10 mg/Kg, po for 6 days by hematoxylin and eosin-staining based microscopic analysis; type: toxicity, organism-based; conditions: in vivo, 144 h
Mus musculus [13] = assay: Hepatotoxicity in scopolamine-induced memory deficit Kunming mouse model assessed as increased aspartate aminotransferase at 10 mg/Kg, po for 6 days; type: toxicity, organism-based; conditions: in vivo, 144 h
Acetylcholinesterase [14] = biological target: T1, Acetylcholinesterase; assay: Mixed-type inhibition of human erythrocyte AChE preincubated for 15 mins followed by addition of acetylthiocholine iodide as substrate in varying concentrations by Lineweaver-Burk reciprocal plot analysis
Mus musculus [15] = assay: Hepatotoxicity in scopolamine-induced memory deficit Kunming mouse model assessed as increase in number of inflammatory cells in portal fields of liver at 10 mg/Kg, po for 6 days by hematoxylin and eosin-staining based microscopic analysis; type: toxicity, organism-based; conditions: in vivo, 144 h

Chain of Cholinesterase (Homo sapiens, UniProt P06276) (P06276 whole entry): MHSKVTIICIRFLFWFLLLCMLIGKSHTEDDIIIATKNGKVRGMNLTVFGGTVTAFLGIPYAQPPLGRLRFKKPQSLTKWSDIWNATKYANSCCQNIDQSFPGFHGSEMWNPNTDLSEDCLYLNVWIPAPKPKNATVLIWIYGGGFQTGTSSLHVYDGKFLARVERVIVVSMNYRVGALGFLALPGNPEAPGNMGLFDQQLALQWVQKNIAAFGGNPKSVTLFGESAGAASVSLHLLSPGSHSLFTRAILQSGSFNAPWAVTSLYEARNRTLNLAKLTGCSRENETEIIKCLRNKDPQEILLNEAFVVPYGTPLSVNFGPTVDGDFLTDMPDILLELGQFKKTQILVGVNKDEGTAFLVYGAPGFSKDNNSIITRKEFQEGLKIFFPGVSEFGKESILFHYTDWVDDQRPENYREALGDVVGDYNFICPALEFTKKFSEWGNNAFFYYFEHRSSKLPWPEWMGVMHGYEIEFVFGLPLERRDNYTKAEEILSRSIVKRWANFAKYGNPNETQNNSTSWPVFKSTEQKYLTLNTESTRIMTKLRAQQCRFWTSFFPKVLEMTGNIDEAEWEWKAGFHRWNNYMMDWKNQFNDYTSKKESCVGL

Row | SMILES | IC50 (Cholinesterase [1]) [µM] | IC50 (Acetylcholinesterase [2]) [µM] | IC50 (Cholinesterase [3]) [µM] | IC50 (Acetylcholinesterase [4]) [µM] | other results
1 | COc1cc2c(cc1OC)C(=O)C(CC1CCN(Cc3cccc(Cl)n3)CC1)C2 (stereo not drawn) | 78.7 | 0.883 | 31.6 | 0.409 | –
2 | COc1cc2c(cc1OC)C(=O)C(CC1CCN(Cc3cccc(C)c3)CC1)C2 (stereo not drawn) | 28.1 | 0.088 | 5.83 | 0.108 | inhibition (INH) [5]: < 10%; Papp at 18 h (in vitro): 12.6 ×10⁻⁶ cm/s; inhibition [6]: > 10%
3 | COc1cc2c(cc1OC)C(=O)C(CC1CCN(Cc3ccc(C)cc3)CC1)C2 (stereo not drawn) | 43.8 | 0.127 | 6.67 | 0.221 | Activity (Rattus norvegicus): Non-Toxic
4 | COc1cc2c(cc1OC)C(=O)C(CC1CCN(Cc3ccccc3F)CC1)C2 (stereo not drawn) | 12.8 | 0.032 | 3.71 | 0.043 | Activity (Mus musculus [7]): Non-Toxic; inhibition (INH) [5]: < 10%; Papp at 18 h (in vitro): 13.7 ×10⁻⁶ cm/s; Activity (Rattus norvegicus): Non-Toxic; Activity (Mus musculus [8]): Non-Toxic; Activity (Mus musculus [9]): Non-Toxic; Activity (Mus musculus [10]): Non-Toxic; inhibition [6]: > 10%; Activity (Mus musculus [11]): Dose-dependent effect; Activity (Mus musculus [12]): Non-Toxic; Activity (Mus musculus [13]): Non-Toxic; inhibition (Acetylcholinesterase [14]): Active; Activity (Mus musculus [15]): Non-Toxic
5 | COc1cc2c(cc1OC)C(=O)C(CC1CCN(Cc3ccc4cccc(O)c4n3)CC1)C2 (stereo not drawn) | 37.4 | 29.8 | 4.53 | 6.42 | Papp at 18 h (in vitro): 6.1 ×10⁻⁶ cm/s; inhibition [6]: 44.8%
6 | COc1cc2c(cc1OC)C(=O)C(CC1CCN(Cc3ccc(C(F)(F)F)cc3)CC1)C2 (stereo not drawn) | – | 5.43 | 3.98 | 2.03 | –
7 | COc1cc2c(cc1OC)C(=O)C(CC1CCN(Cc3cccc(F)n3)CC1)C2 (stereo not drawn) | 38.9 | 0.195 | 21.1 | 0.246 | –
8 | COc1cc2c(cc1OC)C(=O)C(CC1CCN(Cc3cccc(Cl)c3)CC1)C2 (stereo not drawn) | 50.2 | 0.114 | 68.9 | 0.237 | –
9 | COc1cc2c(cc1OC)C(=O)C(CC1CCN(Cc3ccccc3Cl)CC1)C2 (stereo not drawn) | 18.8 | 0.097 | 3.2 | 0.06 | –
10 | COc1cc2c(cc1OC)C(=O)C(CC1CCN(Cc3ccc4ccccc4n3)CC1)C2 (stereo not drawn) | 6.35 | 8.43 | 9.68 | 8.71 | –
11 | COc1cc2c(cc1OC)C(=O)C(CC1CCN(Cc3ccc([N+](=O)[O-])cc3)CC1)C2 (stereo not drawn) | 85.8 | 1.91 | 12.2 | 4.02 | –
12 | COc1cc2c(cc1OC)C(=O)C(CC1CCN(Cc3ccccc3C)CC1)C2 (stereo not drawn) | – | 0.243 | 38.1 | 0.184 | –
13 | COC(=O)c1cccc(CN2CCC(CC3Cc4cc(OC)c(OC)cc4C3=O)CC2)n1 (stereo not drawn) | 25.4 | 5.78 | 29.5 | 0.511 | –
14 | COc1cc2c(cc1OC)C(=O)C(CC1CCN(Cc3cccc(C(F)(F)F)c3)CC1)C2 (stereo not drawn) | 76.9 | 2.12 | 18.2 | 0.197 | –
